In ChEMBL document CHEMBL1201862, “PubChem BioAssay data set” (2004):
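Tested at 5 concentrations; 48 h exposure; 96-well plates; endpoints linearly interpolated, else capped at highest concentration. The concentration for 50% growth inhibition is given as GI50.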 Calls of active or inactive are those of the source. Cut-off read from the data, not from the text of the source: active = GI50 up to about 1.1 µM and inactive = higher.

How the values were obtained:
Assay in all cases: NCI-60 cell line screen, 48 h
SNB-78 = test system: SNB-78
HOP-18 = test system: HOP-18
LXFL 529 = test system: LXFL 529
M19-MEL = test system: M19-MEL
DMS-273 = test system: DMS-273
DLD-1 = test system: DLD-1
DMS-114 = test system: DMS-114
XF498 = test system: XF498
RXF 631 = test system: RXF 631

Measured: GI50

O=C(CSc1nnc(Cc2ccccc2)o1)Nc1ccccc1
inactive: SNB-78 > 100 µM | HOP-18 > 100 µM | LXFL 529 > 100 µM | M19-MEL > 100 µM | DMS-273 > 100 µM | DLD-1 > 100 µM | DMS-114 > 100 µM

O=C1Cc2ccccc2CCc2ccccc21
inactive: SNB-78 > 100 µM | HOP-18 > 100 µM | LXFL 529 > 100 µM | M19-MEL > 100 µM | DMS-273 > 100 µM | DLD-1 > 100 µM | DMS-114 47 µM

C=C1CCC2(C(C)=O)COC1(C)O2 (stereo unspecified)
inactive: HOP-18 > 100 µM | M19-MEL > 100 µM | DMS-273 > 100 µM | XF498 62.2 µM | DLD-1 > 100 µM | DMS-114 > 100 µM

O=C(c1ccccc1)c1ccc(OCCOc2ccc(Nc3ccccc3)cc2)cc1
inactive: RXF 631 17.7 µM | SNB-78 35.2 µM | HOP-18 65.5 µM | LXFL 529 41.1 µM | M19-MEL 70.3 µM | DMS-273 > 100 µM | XF498 16.1 µM | DLD-1 50.9 µM | DMS-114 6.84 µM

O=[N+]([O-])c1ccc(-c2ccc(C3=Nn4c(nnc4-c4ccc(Cl)cc4)SC3)o2)cc1
inactive: RXF 631 > 53.3 µM | HOP-18 > 100 µM | LXFL 529 > 100 µM | M19-MEL > 100 µM | DMS-273 67.9 µM | XF498 24.9 µM | DLD-1 > 91.4 µM | DMS-114 > 100 µM

O=C1c2ccccc2C(=O)C12CCc1ccccc12
inactive: RXF 631 > 100 µM | SNB-78 > 100 µM | HOP-18 > 100 µM | LXFL 529 > 100 µM | M19-MEL > 100 µM | DMS-273 > 100 µM | XF498 > 100 µM | DLD-1 > 100 µM | DMS-114 > 100 µM

NC(=O)CCC(NC(=O)Cc1ccccc1)C(=O)O (stereo unspecified)
inactive: LXFL 529 > 2470 µM | M19-MEL > 2470 µM | DMS-273 > 2470 µM | DLD-1 > 2470 µM | DMS-114 > 2470 µM

C/C(CCc1ccccc1)=N\NC(N)=S
inactive: RXF 631 > 100 µM | SNB-78 > 100 µM | HOP-18 > 100 µM | LXFL 529 43 µM | M19-MEL 74.8 µM | DMS-273 > 100 µM | XF498 43.4 µM | DLD-1 > 100 µM | DMS-114 39 µM

O=c1ncccn1C1C=C(CO)C(O)C1O (stereo unspecified)
inactive: SNB-78 > 50 µM | HOP-18 > 50 µM | LXFL 529 > 50 µM | DMS-273 > 50 µM | XF498 > 50 µM | DLD-1 > 50 µM | DMS-114 > 50 µM

CC1=C(NC(=O)/C(=N/NC(=S)NN)C2C(=O)CC(C)(C)CC2=O)C(=O)c2ccccc2C1=O
inactive: RXF 631 7.8 µM | SNB-78 15.2 µM | HOP-18 15.7 µM | LXFL 529 11.4 µM | M19-MEL 1.33 µM | DMS-273 6.21 µM | XF498 14.9 µM | DLD-1 4.48 µM | DMS-114 2.12 µM

Oc1ccc(-c2c3ccccc3c(-c3ccc(O)cc3)c3ccccc23)cc1
inactive: SNB-78 > 100 µM | HOP-18 > 100 µM | LXFL 529 91.6 µM | M19-MEL > 100 µM | DMS-273 > 100 µM | XF498 > 100 µM | DLD-1 > 100 µM | DMS-114 > 100 µM

CC(=O)CC(N)=O
inactive: RXF 631 > 100 µM | SNB-78 > 100 µM | HOP-18 > 100 µM | LXFL 529 > 100 µM | M19-MEL > 100 µM | DMS-273 > 100 µM | XF498 > 100 µM | DLD-1 > 100 µM | DMS-114 > 100 µM

O=C(c1nc2ccccc2nc1O)C(O)c1ccccc1 (stereo unspecified)
inactive: SNB-78 > 100 µM | LXFL 529 50.2 µM | M19-MEL 90.8 µM | DMS-273 60.3 µM | DLD-1 > 100 µM | DMS-114 48.6 µM

CCOC(=O)CSc1nnc(C(Sc2nc(-c3ccccc3)c(-c3ccccc3)[nH]2)C(C)C)n1-c1ccccc1 (stereo unspecified)
inactive: SNB-78 > 10 µM | LXFL 529 > 10 µM | M19-MEL > 10 µM | DMS-273 > 10 µM | DLD-1 > 10 µM | DMS-114 > 10 µM

CC(C)CN1CC(C)C(=O)NC1=O (stereo unspecified)
inactive: SNB-78 > 100 µM | LXFL 529 > 100 µM | M19-MEL > 100 µM | DMS-273 > 100 µM | XF498 > 100 µM | DLD-1 > 100 µM | DMS-114 > 100 µM

Cc1ccc(/C=C/C(=O)c2sc(-c3nc(C)c(C(=O)/C=C/c4ccc(C)cc4)s3)nc2C)cc1
inactive: RXF 631 > 100 µM | SNB-78 > 100 µM | HOP-18 > 100 µM | M19-MEL > 100 µM | DMS-273 > 100 µM | DLD-1 > 100 µM | DMS-114 > 100 µM

COc1c(CC(C)=O)c2ccccc2n1C(C)=O
inactive: RXF 631 > 100 µM | SNB-78 > 100 µM | HOP-18 > 100 µM | LXFL 529 > 100 µM | M19-MEL > 100 µM | DMS-273 > 100 µM | XF498 > 100 µM | DLD-1 > 100 µM

C/C(CC(=O)Nc1cccc(Cl)c1C)=N\NC(N)=S
inactive: RXF 631 > 100 µM | SNB-78 > 100 µM | LXFL 529 > 100 µM | M19-MEL > 100 µM | XF498 > 100 µM | DLD-1 > 100 µM

CCOP12(OCC)NC(=O)OC1(C(F)(F)F)c1ccccc1O2 (stereo unspecified)
inactive: SNB-78 > 100 µM | HOP-18 > 100 µM | LXFL 529 > 100 µM | M19-MEL > 100 µM | DMS-273 > 100 µM | DLD-1 > 100 µM | DMS-114 > 100 µM

CN(CCO)c1nc(N)cc(=O)[nH]1
inactive: SNB-78 > 100 µM | HOP-18 > 100 µM | LXFL 529 > 100 µM | M19-MEL > 100 µM | DMS-273 > 100 µM | XF498 > 100 µM | DLD-1 > 100 µM | DMS-114 > 100 µM

Cc1ccc(NC(=O)CC2C(=O)Nc3ccccc3S2(=O)=O)c(C)c1 (stereo unspecified)
inactive: SNB-78 18.1 µM | LXFL 529 16.7 µM | DMS-273 10.7 µM | XF498 14.8 µM | DLD-1 14.6 µM | DMS-114 15 µM

O=C1C(c2ccc(Cl)cc2)=[N+]([O-])c2ccccc21
inactive: RXF 631 23.6 µM | HOP-18 21.8 µM | LXFL 529 5.36 µM | M19-MEL > 100 µM | XF498 20.4 µM | DLD-1 13.8 µM | DMS-114 4.07 µM
